# Data published in PMC5218480 (PLoS ONE, 2017).
# Test system: MV-4-11 cells
# Assay: Gene expression microarray analysis (Affymetrix PrimeView) and GSEA
# Type: cell-based, human
# Set-up: RFU PODN (11730768_x_at) / Fold change /veh PODN (11730768_x_at) / RFU LINC00158 (11744669_a_at) / Fold change /veh LINC00158 (11744669_a_at) / RFU DUSP10 (11751237_a_at) / Fold change /veh DUSP10 (11751237_a_at) / RFU ID3 (11757404_x_at) / Fold change /veh ID3 (11757404_x_at) / RFU PLEKHG5 (11737974_s_at) / Fold change /veh PLEKHG5 (11737974_s_at) / RFU LRRC4B (11730491_at) / Fold change /veh LRRC4B (11730491_at) / RFU GIMAP4 (11747438_a_at) / Fold change /veh GIMAP4 (11747438_a_at) / RFU KRT8 (11758183_x_at) / Fold change /veh KRT8 (11758183_x_at) / RFU CNN1 (11734310_a_at) / Fold change /veh CNN1 (11734310_a_at) / RFU VPS37D (11726825_at) / Fold change /veh VPS37D (11726825_at) / RFU C10orf10 (11716522_x_at) / Fold change /veh C10orf10 (11716522_x_at) / RFU KIR2DL2 /// KIR2DL4 /// KIR2DL5A /// KIR2DL5B /// KIR2DS1 /// KIR2DS2 /// KIR2DS3 /// KIR2DS4 /// KIR3DL3 /// KIR3DL3 /// KIR3DS1 (11738374_at) / Fold change /veh KIR2DL2 /// KIR2DL4 /// KIR2DL5A /// KIR2DL5B /// KIR2DS1 /// KIR2DS2 /// KIR2DS3 /// KIR2DS4 /// KIR3DL3 /// KIR3DL3 /// KIR3DS1 (11738374_at) / RFU C1QL1 (11718748_at) / Fold change /veh C1QL1 (11718748_at) / RFU TMPRSS4 (11747572_a_at) / Fold change /veh TMPRSS4 (11747572_a_at) / RFU HAMP (11756126_x_at) / Fold change /veh HAMP (11756126_x_at) / RFU RNFT2 (11725882_a_at) / Fold change /veh RNFT2 (11725882_a_at) / RFU NR4A2 (11747474_a_at) / Fold change /veh NR4A2 (11747474_a_at) / RFU ABCC12 (11746883_a_at) / Fold change /veh ABCC12 (11746883_a_at) / RFU TMEM136 (11760407_x_at) / Fold change /veh TMEM136 (11760407_x_at) / RFU CLDN22 /// WWC2 (11732394_at) / Fold change /veh CLDN22 /// WWC2 (11732394_at) / RFU HLA-DPB1 (11760878_x_at) / Fold change /veh HLA-DPB1 (11760878_x_at) / RFU SPINT1 (11716480_a_at) / Fold change /veh SPINT1 (11716480_a_at) / RFU GAP43 (11754022_s_at) / Fold change /veh GAP43 (11754022_s_at) / RFU A4GNT (11735810_at) / Fold change /veh A4GNT (11735810_at) / RFU PRB3 (11715151_x_at) / Fold change /veh PRB3 (11715151_x_at) / RFU TUBB4B (11761932_at) / Fold change /veh TUBB4B (11761932_at) / RFU CAPN14 (11732068_a_at) / Fold change /veh CAPN14 (11732068_a_at) / RFU TMCC2 (11721928_a_at) / Fold change /veh TMCC2 (11721928_a_at) / RFU IRGQ (11745062_a_at) / Fold change /veh IRGQ (11745062_a_at) / RFU FAM174B (11720279_a_at) / Fold change /veh FAM174B (11720279_a_at) / RFU TMPRSS4 (11748680_a_at) / Fold change /veh TMPRSS4 (11748680_a_at) / RFU FAM212B (11763350_a_at) / Fold change /veh FAM212B (11763350_a_at) / RFU PLEKHG5 (11743358_a_at) / Fold change /veh PLEKHG5 (11743358_a_at) / RFU ZSCAN30 (11745921_a_at) / Fold change /veh ZSCAN30 (11745921_a_at) / RFU CMKLR1 (11741424_a_at) / Fold change /veh CMKLR1 (11741424_a_at) / RFU LOC101060620 /// MAPK8IP1 (11723275_at) / Fold change /veh LOC101060620 /// MAPK8IP1 (11723275_at) / RFU SPTSSB (11747773_x_at) / Fold change /veh SPTSSB (11747773_x_at) / RFU PRSS12 (11739890_at) / Fold change /veh PRSS12 (11739890_at) / RFU BIN1 (11741810_x_at) / Fold change /veh BIN1 (11741810_x_at) / RFU WNT11 (11732464_a_at) / Fold change /veh WNT11 (11732464_a_at) / RFU C10orf10 (11716521_a_at) / Fold change /veh C10orf10 (11716521_a_at) / RFU C5orf56 (11738089_at) / Fold change /veh C5orf56 (11738089_at) / RFU CYB561 (11721691_x_at) / Fold change /veh CYB561 (11721691_x_at) / RFU ANKRD19P (11752326_a_at) / Fold change /veh ANKRD19P (11752326_a_at) / RFU OR2T12 /// OR2T33 /// OR2T8 (11738714_s_at) / Fold change /veh OR2T12 /// OR2T33 /// OR2T8 (11738714_s_at) / RFU VCAN (11748164_a_at) / Fold change /veh VCAN (11748164_a_at) / RFU JSRP1 (11732532_at) / Fold change /veh JSRP1 (11732532_at) / RFU KRTAP10-11 (11738290_x_at) / Fold change /veh KRTAP10-11 (11738290_x_at) / RFU MYO3A (11730013_a_at) / Fold change /veh MYO3A (11730013_a_at) / RFU EBF3 (11725865_a_at) / Fold change /veh EBF3 (11725865_a_at) / RFU CAMK2N1 (11719241_x_at) / Fold change /veh CAMK2N1 (11719241_x_at) / RFU C5orf56 (11738088_a_at) / Fold change /veh C5orf56 (11738088_a_at) / RFU OLFML3 (11715873_a_at) / Fold change /veh OLFML3 (11715873_a_at) / RFU LOC100653217 /// NTM (11731650_a_at) / Fold change /veh LOC100653217 /// NTM (11731650_a_at) / RFU MAPK11 (11762145_a_at) / Fold change /veh MAPK11 (11762145_a_at) / RFU FIZ1 (11724087_x_at) / Fold change /veh FIZ1 (11724087_x_at) / RFU OASL (11726364_x_at) / Fold change /veh OASL (11726364_x_at) / RFU SOX15 (11748057_x_at) / Fold change /veh SOX15 (11748057_x_at) / RFU CD79A (11719716_a_at) / Fold change /veh CD79A (11719716_a_at) / RFU HIST1H1D (11736915_at) / Fold change /veh HIST1H1D (11736915_at) / RFU CASKIN2 (11723855_a_at) / Fold change /veh CASKIN2 (11723855_a_at) / RFU LOC730098 (11760151_x_at) / Fold change /veh LOC730098 (11760151_x_at) / RFU OR4N2 (11742367_at) / Fold change /veh OR4N2 (11742367_at) / RFU PRRT2 (11749266_a_at) / Fold change /veh PRRT2 (11749266_a_at) / RFU SNX32 (11753110_a_at) / Fold change /veh SNX32 (11753110_a_at) / RFU CDHR5 (11726645_a_at) / Fold change /veh CDHR5 (11726645_a_at) / RFU RCAN1 (11760418_a_at) / Fold change /veh RCAN1 (11760418_a_at) / RFU FAM167A (11723789_a_at) / Fold change /veh FAM167A (11723789_a_at) / RFU FAM26E (11764081_at) / Fold change /veh FAM26E (11764081_at) / RFU ISYNA1 (11749810_s_at) / Fold change /veh ISYNA1 (11749810_s_at) / RFU ACY1 (11761880_at) / Fold change /veh ACY1 (11761880_at) / RFU 11764098_at / Fold change /veh 11764098_at / RFU SAMD14 (11745864_x_at) / Fold change /veh SAMD14 (11745864_x_at) / RFU NPB (11741838_a_at) / Fold change /veh NPB (11741838_a_at) / RFU TMPRSS6 (11731388_a_at) / Fold change /veh TMPRSS6 (11731388_a_at) / RFU KRTAP10-2 (11738614_at) / Fold change /veh KRTAP10-2 (11738614_at) / RFU ARHGAP8 /// PRR5-ARHGAP8 (11727945_x_at) / Fold change /veh ARHGAP8 /// PRR5-ARHGAP8 (11727945_x_at) / RFU KRTAP5-7 /// NADSYN1 (11734609_at) / Fold change /veh KRTAP5-7 /// NADSYN1 (11734609_at) / RFU RASL12 (11751679_a_at) / Fold change /veh RASL12 (11751679_a_at) / RFU CDKN2B (11736163_a_at) / Fold change /veh CDKN2B (11736163_a_at) / RFU PRF1 (11729649_at) / Fold change /veh PRF1 (11729649_at) / RFU, ZNF638 /// ZNF638-IT1 / Fold change vs veh, ZNF638 /// ZNF638-IT1 / RFU, PANK3 / Fold change vs veh, PANK3 / RFU, SH3YL1 / Fold change vs veh, SH3YL1 / RFU, ZEB2 / Fold change vs veh, ZEB2 / RFU, NRIP1 / Fold change vs veh, NRIP1 / RFU, PTTG1IP / Fold change vs veh, PTTG1IP / RFU, CAPN2 / Fold change vs veh, CAPN2 / RFU, MED14 / Fold change vs veh, MED14 / RFU, SNORA58 / Fold change vs veh, SNORA58 / RFU, C1orf63 / Fold change vs veh, C1orf63 / RFU, LRRFIP1 / Fold change vs veh, LRRFIP1 / RFU, NDUFAF7 / Fold change vs veh, NDUFAF7 / RFU, SLC12A2 / Fold change vs veh, SLC12A2 / RFU, IBTK / Fold change vs veh, IBTK / RFU, ESF1 / Fold change vs veh, ESF1 / Fold change vs veh, TMEM50B / RFU, TAOK1 / Fold change vs veh, TAOK1 / RFU, ACBD3 / Fold change vs veh, ACBD3 / RFU, TMA16 / Fold change vs veh, TMA16 / RFU, RWDD3 / Fold change vs veh, RWDD3 / RFU, BCAT1 / Fold change vs veh, BCAT1 / RFU, EDEM3 / Fold change vs veh, EDEM3 / RFU, TMEM33 / Fold change vs veh, TMEM33 / RFU, WDR75 / Fold change vs veh, WDR75 / RFU, AHCTF1 / Fold change vs veh, AHCTF1 / RFU, TFRC / Fold change vs veh, TFRC / RFU, ZDHHC17 / Fold change vs veh, ZDHHC17 / RFU, NOM1 / Fold change vs veh, NOM1 / RFU, ARL8B / Fold change vs veh, ARL8B / RFU, ZBTB11 / Fold change vs veh, ZBTB11 / RFU, TAMM41 / Fold change vs veh, TAMM41 / RFU, KIAA1704 /// LOC100996395 / Fold change vs veh, KIAA1704 /// LOC100996395 / RFU, ING1 / Fold change vs veh, ING1 / RFU, TRMT61B / Fold change vs veh, TRMT61B / RFU, FUBP3 / Fold change vs veh, FUBP3 / RFU, TP53 / Fold change vs veh, TP53 / RFU, TNKS2 / Fold change vs veh, TNKS2 / RFU, ZFP14 / Fold change vs veh, ZFP14 / RFU, ACTR2 / Fold change vs veh, ACTR2 / RFU, PPP3R1 / Fold change vs veh, PPP3R1 / RFU, PIK3R1 / Fold change vs veh, PIK3R1 / RFU, HNRNPA1 / Fold change vs veh, HNRNPA1 / RFU, RNF170 / Fold change vs veh, RNF170 / RFU, ZNF28 / Fold change vs veh, ZNF28 / RFU, RNGTT / Fold change vs veh, RNGTT / RFU, OGT / Fold change vs veh, OGT / RFU, BRD1 / Fold change vs veh, BRD1 / RFU, MARS / Fold change vs veh, MARS / RFU, ZNF655 / Fold change vs veh, ZNF655 / RFU, FAHD1 / Fold change vs veh, FAHD1 / RFU, BDP1 / Fold change vs veh, BDP1 / RFU, LRRCC1 / Fold change vs veh, LRRCC1 / RFU, ARID1A / Fold change vs veh, ARID1A / RFU, ZNF146 / Fold change vs veh, ZNF146 / RFU, ZNF330 / Fold change vs veh, ZNF330 / RFU, GPN3 / Fold change vs veh, GPN3 / RFU, C9orf123 / Fold change vs veh, C9orf123 / RFU, N4BP2L2 / Fold change vs veh, N4BP2L2 / RFU, ARFIP1 / Fold change vs veh, ARFIP1 / RFU, FAM179B / Fold change vs veh, FAM179B / RFU, BCL10 / Fold change vs veh, BCL10 / RFU, UHRF1BP1L / Fold change vs veh, UHRF1BP1L / RFU, BET1 / Fold change vs veh, BET1 / RFU, CNOT2 / Fold change vs veh, CNOT2 / RFU, ZNF268 / Fold change vs veh, ZNF268 / Fold change vs veh, ZNF507 / RFU, DGCR2 / Fold change vs veh, DGCR2 / RFU, WDSUB1 / Fold change vs veh, WDSUB1 / Fold change vs veh, HSP90B1 /// MIR3652 / RFU, ADSS / Fold change vs veh, ADSS / RFU, GK / Fold change vs veh, GK / RFU, ZNF148 / Fold change vs veh, ZNF148 / RFU, TAF9 / Fold change vs veh, TAF9 / RFU, SLC1A5 / Fold change vs veh, SLC1A5 / RFU, SLMO2 / Fold change vs veh, SLMO2 / RFU, ABCC4 / Fold change vs veh, ABCC4 / RFU, LOC101060439 /// RAP1B / Fold change vs veh, LOC101060439 /// RAP1B / RFU, RFX7 / Fold change vs veh, RFX7 / RFU, GTPBP10 / Fold change vs veh, GTPBP10 / RFU, CNEP1R1 / Fold change vs veh, CNEP1R1 / RFU, BIVM-ERCC5 /// ERCC5 / Fold change vs veh, BIVM-ERCC5 /// ERCC5 / RFU, ILF3 / Fold change vs veh, ILF3 / RFU 11762660_at / Fold change /veh 11762660_at / RFU VCAN (11757783_s_at) / Fold change /veh VCAN (11757783_s_at) / RFU DDX43 (11728927_at) / Fold change /veh DDX43 (11728927_at) / RFU KRT8 (11758188_x_at) / Fold change /veh KRT8 (11758188_x_at) / RFU NKD1 (11759106_at) / Fold change /veh NKD1 (11759106_at) / RFU SRD5A1 (11742802_a_at) / Fold change /veh SRD5A1 (11742802_a_at) / RFU TPSAB1 /// TPSB2 (11721975_s_at) / Fold change /veh TPSAB1 /// TPSB2 (11721975_s_at) / RFU GSTM3 (11746129_a_at) / Fold change /veh GSTM3 (11746129_a_at) / RFU IL23R (11737362_x_at) / Fold change /veh IL23R (11737362_x_at) / RFU TMEM51 (11727254_a_at) / Fold change /veh TMEM51 (11727254_a_at) / RFU PIWIL2 (11732686_x_at) / Fold change /veh PIWIL2 (11732686_x_at) / RFU ORM1 (11744905_x_at) / Fold change /veh ORM1 (11744905_x_at) / RFU CCDC152 (11743942_at) / Fold change /veh CCDC152 (11743942_at) / RFU ECM1 (11717891_a_at) / Fold change /veh ECM1 (11717891_a_at) / RFU IL23R (11748794_a_at) / Fold change /veh IL23R (11748794_a_at) / RFU TNFAIP8L3 (11732012_x_at) / Fold change /veh TNFAIP8L3 (11732012_x_at) / RFU MBOAT4 (11741988_at) / Fold change /veh MBOAT4 (11741988_at) / RFU 11764193_at / Fold change /veh 11764193_at / RFU TMEM53 (11763286_at) / Fold change /veh TMEM53 (11763286_at) / RFU MAGEB2 (11727129_at) / Fold change /veh MAGEB2 (11727129_at) / RFU TMEM200A (11744735_a_at) / Fold change /veh TMEM200A (11744735_a_at) / RFU CCDC152 (11751479_a_at) / Fold change /veh CCDC152 (11751479_a_at) / RFU FAM211A (11726209_a_at) / Fold change /veh FAM211A (11726209_a_at) / RFU RGS16 (11746705_a_at) / Fold change /veh RGS16 (11746705_a_at) / RFU VCAN (11755009_s_at) / Fold change /veh VCAN (11755009_s_at) / RFU RHOB (11743442_s_at) / Fold change /veh RHOB (11743442_s_at) / RFU RGS16 (11720943_a_at) / Fold change /veh RGS16 (11720943_a_at) / RFU RGS16 (11720944_at) / Fold change /veh RGS16 (11720944_at) / RFU, VPS4B / Fold change vs veh, VPS4B / RFU, CREB1 / Fold change vs veh, CREB1 / RFU, DNAJC13 / Fold change vs veh, DNAJC13 / RFU, GNAQ / Fold change vs veh, GNAQ / RFU, CDK5R1 / Fold change vs veh, CDK5R1 / RFU, ZRANB3 / Fold change vs veh, ZRANB3 / RFU, CUL4A / Fold change vs veh, CUL4A / RFU, CCNY / Fold change vs veh, CCNY / RFU, UFL1 / Fold change vs veh, UFL1 / RFU, COG3 / Fold change vs veh, COG3 / RFU, DIAPH2 / Fold change vs veh, DIAPH2 / RFU, SKA2 / Fold change vs veh, SKA2 / RFU, AFF3 / Fold change vs veh, AFF3 / RFU, LMF1 / Fold change vs veh, LMF1 / RFU, IPO11 / Fold change vs veh, IPO11 / RFU, DFFB / Fold change vs veh, DFFB / RFU, FOXP1 / Fold change vs veh, FOXP1 / RFU, CARD8 / Fold change vs veh, CARD8 / RFU, STRN3 / Fold change vs veh, STRN3 / RFU, ADK / Fold change vs veh, ADK / RFU, RASSF2 / Fold change vs veh, RASSF2 / RFU, WIPF1 / Fold change vs veh, WIPF1 / RFU, LARP1B / Fold change vs veh, LARP1B / RFU, RASA1 / Fold change vs veh, RASA1 / RFU, RB1 / Fold change vs veh, RB1 / RFU, PPFIA1 / Fold change vs veh, PPFIA1 / RFU, MAT2A / Fold change vs veh, MAT2A / RFU, CCT5 / Fold change vs veh, CCT5 / RFU, WDR92 / Fold change vs veh, WDR92 / RFU, CUX1 / Fold change vs veh, CUX1 / RFU, TTC7A / Fold change vs veh, TTC7A / RFU, TMEM135 / Fold change vs veh, TMEM135 / RFU, DEPTOR / Fold change vs veh, DEPTOR / RFU, CPM / Fold change vs veh, CPM / RFU, DNAJB6 / Fold change vs veh, DNAJB6 / RFU, CACNA2D3 / Fold change vs veh, CACNA2D3 / RFU, DTX4 / Fold change vs veh, DTX4 / RFU, TFCP2 / Fold change vs veh, TFCP2 / RFU, GMCL1 /// GMCL1P1 / Fold change vs veh, GMCL1 /// GMCL1P1 / RFU, AEBP2 / Fold change vs veh, AEBP2 / RFU, SNHG1 /// SNORD22 /// SNORD25 /// SNORD26 /// SNORD27 /// SNORD28 /// SNORD29 /// SNORD31 / Fold change vs veh, SNHG1 /// SNORD22 /// SNORD25 /// SNORD26 /// SNORD27 /// SNORD28 /// SNORD29 /// SNORD31 / Fold change (Aza/veh), C12orf56 (ProbeSet 11735607_a_at) / Fold change (ACY-1035/veh), C12orf56 (ProbeSet 11735607_a_at) / Fold change (Aza/veh), FGFR1OP (ProbeSet 11751329_s_at) / Fold change (ACY-1035/veh), FGFR1OP (ProbeSet 11751329_s_at) / Fold change (Aza/veh), VPS36 (ProbeSet 11739960_a_at) / Fold change (ACY-1035/veh), VPS36 (ProbeSet 11739960_a_at) / RFU SYPL1 (11715823_x_at) / Fold change /veh SYPL1 (11715823_x_at) / RFU IGFBP7 (11715501_s_at) / Fold change /veh IGFBP7 (11715501_s_at) / RFU REEP3 (11722064_at) / Fold change /veh REEP3 (11722064_at) / RFU IGLL1 (11728026_x_at) / Fold change /veh IGLL1 (11728026_x_at): dose or concentration left out as unconfirmed
# Conditions: ProbeSet 11725885_a_at; LIST B
smiles,measurement,value
Nc1ccc(-c2cccs2)cc1NC(=O)c1ccc2c(c1)cc(C1CC1)n2CCN1CCOCC1 [ACY-1035],"Fold change vs veh, CNEP1R1",1.08
